{"source": "patent US8735140B2", "about": "“Preservation and composition of bioprocess algae for production of lipids, seedstock, and feed” (Kuehnle AgroSystems, Inc., priority 2008, dated 2014)", "assay_type_in_all_cases": "cell-based", "key": {"Tetraselmis KAS633": {"system": "Tetraselmis KAS633", "assay": "Trehalose preservation, pretreatment with 0.5M sorbitol and embedding in alginate mat", "details": "for % viability after storage & rejuvenation / Cell recovery after storage, relative to control: 0M control = 100%; for Cell number after 21 weeks in storage & rejuvenation: 3 weeks rejuvenation; for Growth after storage & rejuvenation: 21 weeks + 3 weeks rejuvenation; for Cell recovery after storage, relative to control: 21 weeks", "procedure": "(§1) Cells in 40 ml flask cultures are grown to mid-log phase with a density of between 3×10^6 and 3×10^7 cells/ml, and are centrifuged. Culture medium is removed after centrifugation, resulting in more concentrated algae cells. Cells are then re-suspended in ideal glass solution consisting of fresh culture medium and trehalose at a concentration of 0.1M, 0.3M, and 0.5M (dihydrate trehalose 100 from Hayashibara Co. Ltd, Okayama, Japan), respectively, and left overnight with mild agitation. Cells are centrifuged again to remove the ideal glass solution the next day, and are re-suspended in fresh or salt water without any nutrient. The cell density of the resulting suspension is determined prior to storage under the various treatments. (Some cells were also treated with a 0.5M sorbitol solution). In one specific embodiment, 2% (w/v) alginate solution (Sigma-Aldrich A-2033) and 3% CaCl2 solution (Sigma-Aldrich C1016) are prepared in salt water or fresh water medium as required by specific algae species, and autoclave sterilized. Then, 2.0 ml 2% alginate solution is pipetted into each well of a BD Falcon 12-well plate. 0.2 ml algae cell suspension is then pipetted into each well and the mixture is further stirred. The alginate-cell mixture is further sprayed with 3% CaCl2 solution in a sterile pump bottle, allowing the alginate to solidify. After solidification, plates are closed and placed under low light and at ambient temperature. After stored under the above preservation conditions for 5 months, algae cells can be rejuvenated by overlaying alginate/algae mixture with 3.0 ml sterile 5.0% NaPolyphosphate (Sigma Aldrich 305553) and allowing to the mixture sit overnight. The algae/alginate/NaPolyphosphate mixture is then removed from the 12-well plate, diluted with fresh medium (3 parts fresh medium to 1 part cell suspension) and placed under light. In one specific embodiment, cells are treated with trehalose solution at various concentrations and left overnight. Cells are centrifuged the next day to remove the trehalose solution, and then re-suspended in sterile 0.5M D-sorbitol (Fisher Scientific […]) dissolved in salt or fresh-water medium as required by specific algae species. Cells are left to stand for 2 hours with mild agitation. After 2 hours, cells are centrifuged again to remove the 0.5M sorbitol solution and re-suspended in fresh or salt-water medium. Cells are counted after the re-suspension. Cell viability is determined by comparing the cell growth in control set with the experimental set. Specifically, cell counts are performed on all samples. The averaged density value (in cells per ml) for all the cultures after treatment is defined as “rejuvenation cell count.” In some samples, the percent recovery of cells immediately after storage is also determined. The formulae are illustrated as follows: Growth=(rejuvenation cell count)/(initial cell count) Cell recovery after storage=(cell density after storage)/(initial cell density), with controls set at 100% cell recovery. Viability after storage and rejuvenation in nutrient medium=(Growth of treatment)/(Growth of control)×100%, with controls set at 100% viability"}, "Synechocystis KAS635": {"system": "Synechocystis KAS635", "assay": "Trehalose preservation, pretreatment with 0.5M sorbitol and embedding in alginate mat", "details": "for % viability after storage & rejuvenation / Cell recovery after storage, relative to control: 0M control = 100%; for Cell number after 21 weeks in storage & rejuvenation: 3 weeks rejuvenation; for Cell recovery after storage / Cell recovery after storage, relative to control: 21 weeks; for Growth after storage & rejuvenation: 21 weeks + 3 weeks rejuvenation", "procedure": "as §1"}, "Chlorella KAS503": {"system": "Chlorella KAS503", "assay": "Trehalose preservation, pretreatment with 0.5M sorbitol and embedding in alginate mat", "details": "for % viability after storage & rejuvenation / Cell recovery after storage, relative to control: 0M control = 100%; for Cell number after 21 weeks in storage & rejuvenation: 3 weeks rejuvenation; for Growth after storage & rejuvenation: 21 weeks + 3 weeks rejuvenation; for Cell recovery after storage, relative to control: 21 weeks", "procedure": "as §1"}, "algal cells": {"system": "algal cells", "assay": "Trehalose preservation, evaporative drying and rehydration", "procedure": "In the experimental set, trehalose supplied from two different manufacturers (Sigma Aldrich Co.; Hayashibara Co.) is used at 0.5 M, 1.0 M, and 2.0 M each, in each of three different media (dH2O, 1M NaCl, 2.75 M NaCl algae media). In the control set, dH2O, 1 M NaCl medium, and 2.75 M NaCl medium are prepared, all lacking trehalose. The starting density of cells used for preliminary experiments is 4.59×10^5 cells/mL. The cells are spun down and re-suspended in trehalose solutions, and further equilibrate overnight at 28° C. Cells are then re-suspended in 10 mL of its corresponding medium and transferred to 25 mL canted neck tissue culture flasks (Falcon Co.). The cultures are allowed to settle and proliferate without shaking under low light (11 μE/m2/sec) for nine days. Cells are counted again to determine whether cells would multiply in each respective medium without intervening sub-culture. […] After a week of drying, all the cells are re-hydrated in 5 mL of 1M NaCl growth medium in the morning and viable cells are counted the same afternoon. […] Viability is determined by growth curves over time, by the percentage of motile cells or by the green appearance as indicative of photosynthetic activity. […]"}, "[1]": {"details": "0.1M trehalose in F/2, 0.5M sorbitol pretreatment"}, "[2]": {"details": "0.3M trehalose in F/2, 0.5M sorbitol pretreatment"}, "[3]": {"details": "0.5M trehalose in F/2, 0.5M sorbitol pretreatment"}, "[4]": {"details": "0.1M trehalose in BG11, 0.5M sorbitol pretreatment"}, "[5]": {"details": "0.3M trehalose in BG11, 0.5M sorbitol pretreatment"}, "[6]": {"details": "0.5M trehalose in BG11, 0.5M sorbitol pretreatment"}}}
{"smiles": "OC[C@H]1O[C@H](O[C@H]2O[C@H](CO)[C@@H](O)[C@H](O)[C@H]2O)[C@H](O)[C@@H](O)[C@@H]1O", "note": "[trehalose, α-D-glycosyl-α-D-glycosylpyranoside]", "values": [{"measurement": "Cell number after 21 weeks in storage", "setting": "Tetraselmis KAS633; [1]", "result": "2.831 × 10^6"}, {"measurement": "% viability after storage & rejuvenation", "setting": "Tetraselmis KAS633; [1]", "result": "(104%)"}, {"measurement": "Cell number after 21 weeks in storage & rejuvenation", "setting": "Tetraselmis KAS633; [1]", "result": "1.163 × 10^7 cells/ml"}, {"measurement": "Growth after storage & rejuvenation", "setting": "Tetraselmis KAS633; [1]", "result": 4.1}, {"measurement": "Cell recovery after storage, relative to control", "setting": "Tetraselmis KAS633; [1]", "result": "(78%)"}, {"measurement": "Cell number after 21 weeks in storage", "setting": "Tetraselmis KAS633; [2]", "result": "2.276 × 10^6"}, {"measurement": "% viability after storage & rejuvenation", "setting": "Tetraselmis KAS633; [2]", "result": "(158%)"}, {"measurement": "Cell number after 21 weeks in storage & rejuvenation", "setting": "Tetraselmis KAS633; [2]", "result": "1.420 × 10^7 cells/ml"}, {"measurement": "Growth after storage & rejuvenation", "setting": "Tetraselmis KAS633; [2]", "result": 6.23}, {"measurement": "Cell recovery after storage, relative to control", "setting": "Tetraselmis KAS633; [2]", "result": "(80%)"}, {"measurement": "Cell number after 21 weeks in storage", "setting": "Tetraselmis KAS633; [3]", "result": "1.899 × 10^6"}, {"measurement": "% viability after storage & rejuvenation", "setting": "Tetraselmis KAS633; [3]", "result": 186, "unit": "%"}, {"measurement": "Cell number after 21 weeks in storage & rejuvenation", "setting": "Tetraselmis KAS633; [3]", "result": "1.399 × 10^7 cells/ml"}, {"measurement": "Growth after storage & rejuvenation", "setting": "Tetraselmis KAS633; [3]", "result": 7.34}, {"measurement": "Cell recovery after storage, relative to control", "setting": "Tetraselmis KAS633; [3]", "result": "(58%)"}, {"measurement": "Cell number after 21 weeks in storage", "setting": "Synechocystis KAS635; [4]", "result": "1.275 × 10^7"}, {"measurement": "% viability after storage & rejuvenation", "setting": "Synechocystis KAS635; [4]", "result": "(87%)"}, {"measurement": "Cell number after 21 weeks in storage & rejuvenation", "setting": "Synechocystis KAS635; [4]", "result": "2.436 × 10^7 cells/ml"}, {"measurement": "Cell recovery after storage", "setting": "Synechocystis KAS635; [4]", "result": 0.39}, {"measurement": "Growth after storage & rejuvenation", "setting": "Synechocystis KAS635; [4]", "result": 1.91}, {"measurement": "Cell recovery after storage, relative to control", "setting": "Synechocystis KAS635; [4]", "result": "(106%)"}, {"measurement": "Cell number after 21 weeks in storage", "setting": "Synechocystis KAS635; [5]", "result": "1.421 × 10^7"}, {"measurement": "% viability after storage & rejuvenation", "setting": "Synechocystis KAS635; [5]", "result": "(144%)"}, {"measurement": "Cell number after 21 weeks in storage & rejuvenation", "setting": "Synechocystis KAS635; [5]", "result": "4.495 × 10^7 cells/ml"}, {"measurement": "Cell recovery after storage", "setting": "Synechocystis KAS635; [5]", "result": 0.42}, {"measurement": "Growth after storage & rejuvenation", "setting": "Synechocystis KAS635; [5]", "result": 3.16}, {"measurement": "Cell recovery after storage, relative to control", "setting": "Synechocystis KAS635; [5]", "result": "(114%)"}, {"measurement": "Cell number after 21 weeks in storage", "setting": "Synechocystis KAS635; [6]", "result": "2.023 × 10^7"}, {"measurement": "% viability after storage & rejuvenation", "setting": "Synechocystis KAS635; [6]", "result": "(80%)"}, {"measurement": "Cell number after 21 weeks in storage & rejuvenation", "setting": "Synechocystis KAS635; [6]", "result": "3.560 × 10^7 cells/ml"}, {"measurement": "Cell recovery after storage", "setting": "Synechocystis KAS635; [6]", "result": 0.72}, {"measurement": "Growth after storage & rejuvenation", "setting": "Synechocystis KAS635; [6]", "result": 1.76}, {"measurement": "Cell recovery after storage, relative to control", "setting": "Synechocystis KAS635; [6]", "result": "(195%)"}, {"measurement": "Cell number after 21 weeks in storage", "setting": "Chlorella KAS503; [1]", "result": "1.163 × 10^7"}, {"measurement": "% viability after storage & rejuvenation", "setting": "Chlorella KAS503; [1]", "result": "(51%)"}, {"measurement": "Cell number after 21 weeks in storage & rejuvenation", "setting": "Chlorella KAS503; [1]", "result": "1.03 × 10^7 cells/ml"}, {"measurement": "Growth after storage & rejuvenation", "setting": "Chlorella KAS503; [1]", "result": 0.89}, {"measurement": "Cell recovery after storage, relative to control", "setting": "Chlorella KAS503; [1]", "result": "(227%)"}, {"measurement": "Cell number after 21 weeks in storage", "setting": "Chlorella KAS503; [2]", "result": "8.097 × 10^6"}, {"measurement": "% viability after storage & rejuvenation", "setting": "Chlorella KAS503; [2]", "result": "(148%)"}, {"measurement": "Cell number after 21 weeks in storage & rejuvenation", "setting": "Chlorella KAS503; [2]", "result": "2.080 × 10^7 cells/ml"}, {"measurement": "Growth after storage & rejuvenation", "setting": "Chlorella KAS503; [2]", "result": 2.57}, {"measurement": "Cell recovery after storage, relative to control", "setting": "Chlorella KAS503; [2]", "result": "(226%)"}, {"measurement": "Cell number after 21 weeks in storage", "setting": "Chlorella KAS503; [3]", "result": "8.589 × 10^6"}, {"measurement": "% viability after storage & rejuvenation", "setting": "Chlorella KAS503; [3]", "result": "(132%)"}, {"measurement": "Cell number after 21 weeks in storage & rejuvenation", "setting": "Chlorella KAS503; [3]", "result": "1.959 × 10^7 cells/ml"}, {"measurement": "Growth after storage & rejuvenation", "setting": "Chlorella KAS503; [3]", "result": 2.28}, {"measurement": "Cell recovery after storage, relative to control", "setting": "Chlorella KAS503; [3]", "result": "(231%)"}, {"measurement": "Cell appearance of preserved samples versus controls", "setting": "algal cells; after rehydration, light microscope", "result": "No significant differences in cell appearance"}, {"measurement": "Cell viability after a week of drying and re-hydration", "setting": "algal cells; in 1M NaCl growth medium, compared with Sigma trehalose and other media", "result": "best preserved"}]}
